≈ marks a conversion by molar mass, not a printed value.
Columns and labels:
[1] = test system: Haemophilus influenzae 9334; test: Antibacterial activity test (agar dilution MIC); type: cell-based; settings: agar plates, 37° C., about 20 hours
Method: (§1) In vitro antibacterial activities of the compounds of Examples 3, 5, 20, 23, 25 and 48 were determined as follows by referring to the standard method of the Japanese Society of Chemotherapy (Chemotherapy, 29, pp.76-79, 1981). For comparison, antibacterial activities of rokitamycin (RKM), leucomycin-A7 (LM-A7) and the compound described in U.S. Pat. No. 5,407,918, Example 7 were determined in the same manner.
(§2) For a solution of each test drug dissolved in methanol at 5000 μg/ml, a series of 2-fold dilutions were prepared. 200 μl of each solution of the test drug was added in a petri dish, added with 10 ml of agar medium for susceptibility measurement supplemented with 5% of sterile horse defibrinated blood, 15 μg/ml of β-nicotinamide adenine dinucleotide and 5 μg/ml of Hemin, and then mixed to prepare agar plates containing the test drug. A given volume of a culture broth for susceptibility measurement, which was prepared to contain a given cell numbers of bacteria to be tested, was inoculated to the agar plates containing the test drug by using a micro planter (Sakuma Seisakusho). After the inoculation, cultivation was carried out at 37° C. for about 20 hours. After the culture, presence or absence of the growth of the test bacteria on the plates was observed by visual inspection, and the minimum concentration at which no growth was observed was determined as minimum inhibitory concentration (MIC) of each test drug for each of the test bacteria The results are shown in Tables 1-1, 1-2 and 1-3.

[2] = test system: Micrococcus luteus ATCC9341; test: Antibacterial activity test (agar dilution MIC); type: cell-based; settings: agar plates, 37° C., about 20 hours
Method: as §1, §2

[3] = test system: Moraxella catarrhalis W-0500; test: Antibacterial activity test (agar dilution MIC); type: cell-based; settings: 37° C., about 20 hours; for Minimum inhibitory concentration (MIC): agar plates
Method: as §1, §2

[4] = test system: Staphylococcus aureus 209P JC-1; test: Antibacterial activity test (agar dilution MIC); type: cell-based; settings: agar plates, 37° C., about 20 hours
Method: as §1, §2

[5] = test system: Staphylococcus aureus MS15027 (ermC methylase); test: Antibacterial activity test (agar dilution MIC); type: cell-based; settings: for Minimum inhibitory concentration (MIC): Staphylococcus aureus MS15027 (ermC methylase), agar plates, 37° C., about 20 hours
Method: as §1, §2

[6] = test system: Streptococcus pneumoniae DP1 TypeI; test: Antibacterial activity test (agar dilution MIC); type: cell-based; settings: agar plates, 37° C., about 20 hours
Method: as §1, §2

[7] = test system: Streptococcus pneumoniae IP692; test: Antibacterial activity test (agar dilution MIC); type: cell-based; settings: agar plates, 37° C., about 20 hours
Method: as §1, §2

[8] = test system: Streptococcus pneumoniae PRC-53 (mefE efflux); test: Antibacterial activity test (agar dilution MIC); type: cell-based; settings: for Minimum inhibitory concentration (MIC): Streptococcus pneumoniae PRC-53 (mefE efflux), agar plates, 37° C., about 20 hours
Method: as §1, §2

[9] = test system: Streptococcus pneumoniae PRC-91 (ermAM methylase); test: Antibacterial activity test (agar dilution MIC); type: cell-based; settings: agar plates, 37° C., about 20 hours
Method: as §1, §2

[10] = test system: Streptococcus pneumoniae TH-662 (ermAM methylase); test: Antibacterial activity test (agar dilution MIC); type: cell-based; settings: agar plates, 37° C., about 20 hours
Method: as §1, §2

[11] = test system: Streptococcus pyogenes Cook; test: Antibacterial activity test (agar dilution MIC); type: cell-based; settings: agar plates, 37° C., about 20 hours
Method: as §1, §2

[12] = type: in vitro ADME; settings: 4 h
Method: Stability of the compound of Example 3 in plasma was studied as follows. Stability of RKM in plasma was also studied in the same manner for comparison. Blood was collected from rat ventral aorta and centrifuged (3000 rpm, 15 minutes) to separate plasma. 10 μl of a solution of a test drug dissolved in methanol at a concentration of 1600 μg/ml was added to 190 μl of the rat plasma and reacted at 37° C. At the start of the reaction and after 1, 2 and 4 hours, a part of the reaction mixture was collected and added with a given volume of an acetonitrile solution to prepare a bioassay sample for measurement of test medicament concentration. […] After the incubation, the diameter of the ring by growth inhibition of Micrococcus luteus ATCC9341 observed around the paper disc was measured by using a digital caliper. […] Based on a calibration curve obtained from concentrations of the standard solutions and diameters of growth inhibition rings, concentrations of the test drug in the samples at several time points were calculated, and then, by using the calculated remaining concentrations of the test drug in the samples at the time points, ratios of activity (%) based on the concentration at the start of the reaction, which was taken as 100%, were calculated. […]

Gram-positive bacteria = test: Antibacterial activity test, overall comparison; type: cell-based; settings: for enhancement of the antibacterial activity compared to RKM and LM-A7: comparison of MIC values of Tables 1-1 and 1-2
Method: as §1, §2

[13] = test system: resistant strains of Streptococcus pneumoniae; test: Antibacterial activity test, resistant strains, comparison; type: cell-based; settings: comparison of MIC values of Table 1-3; reversed versus natural configuration at 3-position
Method: as §1
as §2, with “A given volume of a culture broth for susceptibility measurement, which was prepared to contain a given cell numbers of bacteria to be tested, was inoculated to the agar plates containing the test drug by using a micro planter (Sakuma Seisakusho). After the inoculation, cultivation was carried out at 37° C. for about 20 hours.” left out

[14] = read-out: Minimum inhibitory concentration (MIC)

SMILES | Minimum inhibitory concentration (MIC) [1] | Minimum inhibitory concentration (MIC) [2] | Minimum inhibitory concentration (MIC) [3] | Minimum inhibitory concentration (MIC) [4] | Minimum inhibitory concentration (MIC) [5] | Minimum inhibitory concentration (MIC) [6] | Minimum inhibitory concentration (MIC) [7] | Minimum inhibitory concentration (MIC) [8] | Minimum inhibitory concentration (MIC) [9] | Minimum inhibitory concentration (MIC) [10] | Minimum inhibitory concentration (MIC) [11] | also measured
CCC(=O)O[C@H]1[C@H](C)O[C@@H](O[C@H]2[C@H](N(C)C)[C@@H](O)[C@H](O[C@H]3[C@@H](CC=O)C[C@@H](C)[C@@H](O)/C=C/C=C/C[C@@H](C)OC(=O)C[C@@H](O)[C@@H]3OC)O[C@@H]2C)C[C@@]1(C)O [LM-A7, leucomycin-A7, reference compound] | 1.56 µg/mL (≈ 2.06 µM) | 0.10 µg/mL (≈ 0.132 µM) | 0.78 µg/mL (≈ 1.03 µM) | 0.39 µg/mL (≈ 0.515 µM) | 0.39 µg/mL (≈ 0.515 µM) | 0.20 µg/mL (≈ 0.264 µM) | 0.39 µg/mL (≈ 0.515 µM) | 0.20 µg/mL (≈ 0.264 µM) | >100 µg/mL | >100 µg/mL | 0.10 µg/mL (≈ 0.132 µM) | –
CCCC(=O)OC1C(C)OC(OC2C(C)OC(OC3C(CC=O)CC(C)C(O)C=CC=CCC(C)OC(=O)CC(OC)C3OC)C(O)C2N(C)C)CC1(C)OC(=O)CC (centres unmarked) [Example 3, 3-O-Methylrokitamycin] | 3.13 µg/mL (≈ 3.72 µM) | 0.025 µg/mL (≈ 0.0297 µM) | 0.20 µg/mL (≈ 0.238 µM) | 0.10 µg/mL (≈ 0.119 µM) | 0.20 µg/mL (≈ 0.238 µM) | 0.05 µg/mL (≈ 0.0594 µM) | – | 0.10 µg/mL (≈ 0.119 µM) | – | – | 0.025 µg/mL (≈ 0.0297 µM) | Stability in rat plasma (remaining antibacterial activity with time) [12]: more stable in the rat plasma than RKM; enhancement of the antibacterial activity compared to RKM and LM-A7 (Gram-positive bacteria): two-fold
CCC(=O)OC1C(C)OC(OC2C(C)OC(OC3C(CC=O)CC(C)C(O)C=CC=CCC(C)OC(=O)CC(OC(=O)c4ccccc4)C3OC)C(O)C2N(C)C)CC1(C)O (centres unmarked) [Example 25, 3-O-Benzoylleucomycin A7] | 6.25 µg/mL (≈ 7.25 µM) | – | 1.56 µg/mL (≈ 1.81 µM) | 0.39 µg/mL (≈ 0.452 µM) | – | – | 0.39 µg/mL (≈ 0.452 µM) | 0.39 µg/mL (≈ 0.452 µM) | >100 µg/mL | >100 µg/mL | – | –
COC1CC(=O)OC(C)CC=CC=CC(O)C(C)CC(CC=O)C(OC2OC(C)C(OC3CC(C)(OC)C(OCCC(C)C)C(C)O3)C(N(C)C)C2O)C1OC (centres unmarked) [Example 20, 4″-O-Isoamyl-3,3″-di-O-methylleucomycin V] | 1.56 µg/mL (≈ 1.95 µM) | 0.05 µg/mL (≈ 0.0625 µM) | 0.39 µg/mL (≈ 0.487 µM) | 0.20 µg/mL (≈ 0.25 µM) | 0.39 µg/mL (≈ 0.487 µM) | 0.10 µg/mL (≈ 0.125 µM) | – | 0.10 µg/mL (≈ 0.125 µM) | – | – | 0.10 µg/mL (≈ 0.125 µM) | antibacterial activity compared with the compound described in Example 7 of U.S. Pat. No. 5,407,918 (Gram-positive bacteria; comparison of MIC values of Table 1-2): almost the same antibacterial activity
CCCC(=O)O[C@H]1[C@H](C)O[C@@H](O[C@H]2[C@H](N(C)C)[C@@H](O)[C@H](O[C@H]3[C@@H](CC=O)C[C@@H](C)[C@@H](O)/C=C/C=C/C[C@@H](C)OC(=O)C[C@@H](O)[C@@H]3OC)O[C@@H]2C)C[C@@]1(C)OC(=O)CC [RKM, rokitamycin, reference compound] | – | – | – | – | – | – | – | – | – | – | – | MIC [1, 14]: 1.56 µg/mL (≈ 1.88 µM); MIC [2, 14]: 0.05 µg/mL (≈ 0.0604 µM); MIC ([3]; W0500, agar plates, read-out: Minimum inhibitory concentration (MIC)): 0.2 µg/mL (≈ 0.242 µM); MIC [4, 14]: 0.2 µg/mL (≈ 0.242 µM); MIC ([5]; Staphylococcus aureus, 20 h, read-out: Minimum inhibitory concentration (MIC)): 0.39 µg/mL (≈ 0.471 µM); MIC ([6]; DP1TYPEI, read-out: Minimum inhibitory concentration (MIC)): 0.1 µg/mL (≈ 0.121 µM); MIC ([8]; Streptococcus pneumoniae, 20 h, read-out: Minimum inhibitory concentration (MIC)): 0.2 µg/mL (≈ 0.242 µM); MIC [11, 14]: 0.05 µg/mL (≈ 0.0604 µM)
CCC(=O)OC1C(C)OC(OC2C(C)OC(OC3C(CC=O)CC(C)C(O)C=CC=CCC(C)OC(=O)CC(OC(=O)c4ccccc4)C3OC)C(O)C2N(C)C)CC1(C)O (stereo not drawn) [Example 48, 3-Epi-3-O-benzoylleucomycin A7] | 6.25 µg/mL (≈ 7.25 µM) | – | 0.78 µg/mL (≈ 0.905 µM) | 0.39 µg/mL (≈ 0.452 µM) | 0.78 µg/mL (≈ 0.905 µM) | – | 0.20 µg/mL (≈ 0.232 µM) | 0.20 µg/mL (≈ 0.232 µM) | 25 µg/mL (≈ 29 µM) | 25 µg/mL (≈ 29 µM) | – | antibacterial activity against the resistant strains of Streptococcus pneumoniae, compared with Example 25 [13]: improvement in antibacterial activity
C=CCOC1CC(=O)OC(C)CC=CC=CC(O)C(C)CC(CC=O)C(OC2OC(C)C(OC3CC(C)(OC(=O)CC)C(OC(=O)CCC)C(C)O3)C(N(C)C)C2O)C1OC (centres unmarked) [Example 5, 3-O-Allylrokitamycin] | 6.25 µg/mL (≈ 7.2 µM) | 0.10 µg/mL (≈ 0.115 µM) | 0.39 µg/mL (≈ 0.449 µM) | 0.20 µg/mL (≈ 0.23 µM) | 0.39 µg/mL (≈ 0.449 µM) | 0.20 µg/mL (≈ 0.23 µM) | – | 0.20 µg/mL (≈ 0.23 µM) | – | – | 0.10 µg/mL (≈ 0.115 µM) | –
CCC(=O)OC1C(C)OC(OC2C(C)OC(OC3C(CC=O)CC(C)C(O)C=CC=CCC(C)OC(=O)CC(OC)C3OC)C(O)C2N(C)C)CC1(C)O (centres unmarked) [Example 23, 3-O-Methylleucomycin A7] | 1.56 µg/mL (≈ 2.02 µM) | 0.05 µg/mL (≈ 0.0648 µM) | 0.78 µg/mL (≈ 1.01 µM) | 0.20 µg/mL (≈ 0.259 µM) | 0.20 µg/mL (≈ 0.259 µM) | 0.10 µg/mL (≈ 0.13 µM) | – | 0.10 µg/mL (≈ 0.13 µM) | – | – | 0.10 µg/mL (≈ 0.13 µM) | enhancement of the antibacterial activity compared to RKM and LM-A7 (Gram-positive bacteria): two-fold

— patent publication US6660718B1, “3-modified leucomycin derivatives” (Meiji Seika Kaisha, Ltd., priority 1999, dated 2003)
